“And” between values parts separate entries of the source, which are not always exact repeats. Equal values may be shown once. Read-outs that look alike come from different tables or passages of the source.
How the values were obtained:
[1] = tested on: Klebsiella pneumoniae; assay: microbe, parasite or virus in culture; format: cell-based; conditions: for MIC: Klebsiella pneumoniae
In short: (§1)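 MICs by CLSI broth microdilution in in-house panels. Strains tested were engineered strains carrying porin and efflux mutation combinations, KPC-producing clinical isolates and derivatives cured of KPC plasmids, and KPC-producing clinical isolates enriched for porin mutations.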

[2] = tested on: A. baumannii strain ATCC 17978; assay: Fluorescence microscopy, cellular morphology; format: cell-based, Acinetobacter baumannii; conditions: xeruborbactam, meropenem 1× and 2× MIC; aztreonam 2× MIC; amdinocillin 2 μg/mL
Procedure: Single colonies of K. pneumoniae strain KPM1026a, A. baumannii strain ATCC 17978, and P. aeruginosa strain PAM1154 were picked from LB agar plates, inoculated in cation-adjusted Mueller-Hinton broth (CA-MHB), and incubated overnight at 30°C with rolling. Overnight cultures were diluted into fresh CA-MHB and incubated at 30°C, with rolling, until they reached an OD600 of ≈0.12 to 0.15 (equivalent to ~2 × 10^8 CFU/mL). Samples were then treated with compounds and incubated at 30°C, with rolling. After 1 or 2 h of treatment, cells were collected and stained with a dye mix containing FM4-64 (1 μg/mL), DAPI (4′,6-diamidino-2-phenylindole) (2 μg/mL), and SYTOX green (0.5 μM) (Molecular Probes, Invitrogen, or Thermo Fisher Scientific). Cells were transferred onto an agarose pad containing 1.2% agarose and 20% LB medium for microscopy. Microscopy was performed as previously described ([34]).

[3] = tested on: Pseudomonas aeruginosa; assay: Broth microdilution MIC (CLSI), Pseudomonas aeruginosa; format: cell-based; conditions: for MIC50 / MIC90 / MIC: Pseudomonas aeruginosa; for MIC50 / MIC90: 506 isolates
In short: as §1

O=C(O)c1c(F)ccc2c1OB(O)[C@@H]1C[C@H]21 [Xeruborbactam]
MIC ([1]; strain KPM1171, ramR ompK36_1171, read-out: MIC): 64 µg/mL | MIC ([1]; strain KPM2040, ompK36_2040, read-out: MIC): 16 µg/mL | MIC ([1]; strain KPM2600, ΔompK35): 16 µg/mL | MIC ([1]; strain KPM2613, ΔompK35 ompK36_2040): 32 µg/mL | MIC ([1]; strain KPM2696, ΔacrB): 16 µg/mL | percentage of strains with xeruborbactam MIC values ≥32 µg/ml ([1]; OmpK35 full-length (n=118)): 31.4% | percentage of strains with xeruborbactam MIC values ≥32 µg/ml ([1]; OmpK35 full-length, OmpK36 GD (n=11)): 82% | percentage of strains with xeruborbactam MIC values ≥32 µg/ml ([1]; OmpK35 full-length, OmpK36 full length (n=82)): 6.1% | percentage of strains with xeruborbactam MIC values ≥32 µg/ml ([1]; OmpK35 full-length, OmpK36 non-functional (n=25)): 92% | percentage of strains with xeruborbactam MIC values ≥32 µg/ml ([1]; OmpK35 non-functional (n=318)): 49% | percentage of strains with xeruborbactam MIC values ≥32 µg/ml ([1]; OmpK35 non-functional, OmpK36 GD (n=149)): 74.5% | percentage of strains with xeruborbactam MIC values ≥32 µg/ml ([1]; OmpK35 non-functional, OmpK36 full length (n=130)): 3.4% | percentage of strains with xeruborbactam MIC values ≥32 µg/ml ([1]; OmpK35 non-functional, OmpK36 non-functional (n=39)): 95% | percentage of strains with xeruborbactam MIC values ≥32 µg/ml ([1]; OmpK36 GD (n=160)): 75% | percentage of strains with xeruborbactam MIC values ≥32 µg/ml ([1]; OmpK36 non-functional (n=65)): 92.3% and 92% | fold MIC increase ([1]; inactivation of ompK36 alone or in combination with ompK35): 2 fold and 2- to 4 fold | fold MIC increase ([1]; strain KPM1171 vs wild type): 4 fold | cellular morphology [2]: cell shape deformation, from coccobacilli to a football shape | isolates with MICs of ≥64 μg/mL ([3]; 506 P. aeruginosa clinical isolates): 94% | MIC50 [3]: >64 µg/mL | MIC90 [3]: >64 µg/mL | MIC50 ([3]; read-out: MIC50): > 64 µg/mL | MIC90 ([3]; read-out: MIC90): > 64 µg/mL | MIC ([3]; PAM1154 (oprM::Hg), xeruborbactam 0 µg/ml): 16 µg/mL | MIC ([3]; PAO1, Pseudomonas aeruginosa PAM3034 (PAO1), read-out: MIC): 16 µg/mL and 72 µM | MIC ([3]; after inactivation of MexAB-OprM, read-out: MIC): 16 µg/mL | MIC ([3]; before inactivation of MexAB-OprM (wild type), read-out: MIC): 256 µg/mL | MIC ([3]; strain 1089003, alone, read-out: MIC): 16 µg/mL | MIC ([3]; strain 1097436, alone, read-out: MIC): 8 µg/mL | MIC ([3]; strain 1098084, alone, read-out: MIC): 16 µg/mL | MIC ([3]; strain 1098916, alone, read-out: MIC): 32 µg/mL | MIC ([3]; strain 1100407, alone, read-out: MIC): 32 µg/mL | MIC ([3]; strain 1104100, alone, read-out: MIC): 16 µg/mL | MIC ([3]; strain 1104168, alone, read-out: MIC): 32 µg/mL | MIC ([3]; strain 1104284, alone, read-out: MIC): 8 µg/mL | MIC ([3]; strain 1106973, alone, read-out: MIC): 16 µg/mL | MIC ([3]; strain 1108885, alone, read-out: MIC): 16 µg/mL | MIC ([3]; strain 1109744, alone, read-out: MIC): 16 µg/mL | MIC ([3]; strain 1113238, alone, read-out: MIC): 8 µg/mL | MIC ([3]; strain 1113634, alone, read-out: MIC): 8 µg/mL | MIC ([3]; strain 1114012, alone, read-out: MIC): 8 µg/mL | MIC ([3]; strain 1116835, alone, read-out: MIC): 8 µg/mL | MIC ([3]; strain 1116849, alone, read-out: MIC): 16 µg/mL | MIC ([3]; strain 1118234, alone, read-out: MIC): 16 µg/mL | MIC ([3]; strain 1119418, alone, read-out: MIC): 8 µg/mL | MIC ([3]; strain 1124145, alone, read-out: MIC): 16 µg/mL | MIC ([3]; strain 1125954, alone, read-out: MIC): 32 µg/mL | MIC ([3]; strain 1125996, alone, read-out: MIC): 32 µg/mL | MIC ([3]; strain 1126521, alone, read-out: MIC): 8 µg/mL | MIC ([3]; strain 1126957, alone, read-out: MIC): 8 µg/mL | MIC ([3]; strain 1126982, alone, read-out: MIC): 32 µg/mL | MIC ([3]; strain 1128636, alone, read-out: MIC): 32 µg/mL | MIC ([3]; strain 1128674, alone, read-out: MIC): 16 µg/mL | MIC ([3]; strain 1130387, alone, read-out: MIC): 16 µg/mL | MIC ([3]; strain 1130447, alone, read-out: MIC): 16 µg/mL | MIC ([3]; strain 1130475, alone, read-out: MIC): 16 µg/mL | MIC ([3]; strain 1131123, alone, read-out: MIC): 8 µg/mL | MIC ([3]; strain PAM1020, wild type, read-out: MIC): 256 µg/mL | MIC ([3]; strain PAM1032, nalB (MexAB-OprM overexpression)): > 256 µg/mL | MIC ([3]; strain PAM1033, nfxB (MexCD-OprJ overexpression)): 128 µg/mL | MIC ([3]; strain PAM1034, nfxC (MexEF-OprN overexpression)): 256 µg/mL | MIC ([3]; strain PAM1106, mexA::Tet): 16 µg/mL | MIC ([3]; strain PAM1154 (Fig. 6), read-out: MIC): 32 µg/mL | MIC ([3]; strain PAM1154, oprM::Hg): 16 µg/mL | MIC ([3]; strain PAM1154, read-out: MIC): 16 µg/mL | fold reduction of MIC ([3]; inactivation of MexAB-OprM): 16 fold | fold MIC decrease ([3]; mexCD-oprJ-overexpressing strain PAM1033): 2 fold

Source: paper PMC9578396, “Intrinsic Antibacterial Activity of Xeruborbactam In Vitro: Assessing Spectrum and Mode of Action” (Antimicrobial Agents and Chemotherapy, 2022)
